In patent US20140163061A1, “Methods For Reducing Blood Pressure” (FibroGen, Inc., priority 2008, published 2014):

Test system: Nx rats (5/6 nephrectomy, hypertensive chronic kidney disease)
Experiment: Nx rats treated with various HIF prolyl hydroxylase inhibitors, change in systolic blood pressure after four weeks, Example 4
Assay type: in vivo, rat
Experimental: A characteristic pathophysiology found in the uremic chronic kidney disease (CKD) population is hypertension. […] (Priyadarshi et al. (2002) Kidney Int 61:542-546; Coleman et al. (2006) Proc Natl Acad Sci USA 103:5965-5970.) The surgical procedure used to generate the rat remnant kidney was performed according to modification of the procedure described by Priyadarshi et al. (supra) or according to modification of the procedure described by Tanaka et al. (2005, Lab Invest 85:1292-1307). Separate studies used either male Sprague Dawley rats (280-300 g) or female Wistar rats (220-250 g).
Animals were divided into two groups of which one group (sham) underwent sham surgery and the other group (Nx) was subjected to 5/6 nephrectomy as follows. Animals were anesthetized under isoflurane, and a midline abdominal incision was made, followed by blunt dissection of the renal pedicles. Two or three branches of the left renal artery were ligated to infarct two thirds of the left kidney, while the right kidney underwent simultaneous nephrectomy. The infarct was verified by observing the change in kidney color. Animal body temperature was maintained constant, and warm (˜37° C.) saline (1.0 mL) was administered directly into the abdomen. Thereafter, the incision was sutured and the animal was allowed to recover and have free access to regular food and water. Animal body weight and mortality were closely monitored.
Starting 35 days after surgery, Nx and sham animals were randomly divided into groups and treated with either vehicle or compound A. Compound was dosed three times per week by oral gavage at 20 or 40 mg/kg compound per dose. Blood pressure (BP) was measured using a Kent XBP1000 system (Kent Scientific Corp., Torrington, Conn.) or a Muromachi tail-cuff blood pressure system (Muromachi Kikai Co., Ltd., Tokyo, Japan), both having volume/pressure recording technology and used according to the manufacturer's instruction. Rats were slightly warmed under a lamp and conditioned carefully before the measurement. BP was recorded as the mean value of 3 separate measurements obtained at each session and reported herein as mean±SEM. Results are compared using 1-way analysis of variance (ANOVA) and Student-Newman-Keuls method (SigmaStat, SPSS Science, Chicago, Ill.).
In another series of experiments, rats subjected to 5/6 nephrectomy were treated 35 days after surgery according to the dosing schedule described in Example 3 above with a HIF prolyl hydroxylase inhibitor. Individual compound selected from the group consisting of compounds A and C-K were administered by oral gavage at 8, 20, 30, or 40 mg/kg (see Table 1 and Table 2). Systolic blood pressure was recorded at day 35 (baseline) and again immediately following the last dose of compound. Table 1 and Table 2 show changes in systolic blood pressure following four weeks of oral administration of various compounds of the present invention to Nx rats.

## N#Cc1nc(C(=O)NCC(=O)O)c(O)c2ccn(Cc3ccc4ccccc4c3)c12 [F, [(7-cyano-4-hydroxy-1-naphthalen-2-ylmethyl-1H-pyrrolo[2,3-c]pyridine-5-carbonyl)-amino]-acetic acid]
8 mg/kg oral
  SBP (mmHg) Change from Baseline: −10.58 mmHg
  SBP (mmHg) Change from Vehicle: −23.88 mmHg

## N#Cc1nc(C(=O)NCC(=O)O)c(O)c2c(Oc3ccccc3)cccc12 [I, [(1-cyano-4-hydroxy-5-phenoxy-isoquinoline-3-carbonyl)-amino]-acetic acid]
20 mg/kg oral
  SBP (mmHg) Change from Vehicle: −11.00 mmHg

## Cc1cccc(C)c1Oc1ccc2c(O)c(C(=O)NCC(=O)O)nc(C#N)c2c1 [J, {[1-cyano-7-(2,6-dimethyl-phenoxy)-4-hydroxy-isoquinoline-3-carbonyl]-amino}-acetic acid]
8 mg/kg oral
  SBP (mmHg) Change from Vehicle: −2.66 mmHg

## COc1ccc(Oc2ccc3c(O)c(C(=O)NCC(=O)O)ncc3c2)cc1 [C, {[4-hydroxy-7-(4-methoxy-phenoxy)-isoquinoline-3-carbonyl]-amino}-acetic acid]
30 mg/kg oral
  SBP (mmHg) Change from Baseline: −13.72 mmHg
  SBP (mmHg) Change from Vehicle: −34.03 mmHg

## COc1ccc(Cn2c(Cl)c(Cl)c3c(O)c(C(=O)NCC(=O)O)nc(C#N)c32)cc1 [H, {[2,3-dichloro-7-cyano-4-hydroxy-1-(4-methoxy-benzyl)-1H-pyrrolo[2,3-c]pyridine-5-carbonyl]-amino}-acetic acid]
20 mg/kg oral
  SBP (mmHg) Change from Vehicle: −15.73 mmHg

## COc1cccc(Cn2ccc3c(O)c(C(=O)NCC(=O)O)nc(C#N)c32)c1 [E, {[7-cyano-4-hydroxy-1-(3-methoxy-benzyl)-1H-pyrrolo[2,3-c]pyridine-5-carbonyl]-amino}-acetic acid]
20 mg/kg oral
  SBP (mmHg) Change from Baseline: −7.12 mmHg
  SBP (mmHg) Change from Vehicle: −18.55 mmHg

## COc1ccc(Cn2cc(Br)c3c(O)c(C(=O)NCC(=O)O)nc(C#N)c32)cc1 [K, {[3-bromo-7-cyano-4-hydroxy-1-(4-methoxy-benzyl)-1H-pyrrolo[2,3-c]pyridine-5-carbonyl]-amino}-acetic acid]
8 mg/kg oral
  SBP (mmHg) Change from Vehicle: −19.92 mmHg

## CC(C)Oc1ccc2c(O)c(C(=O)NCC(=O)O)nc(C#N)c2c1 [Compound D, [(1-cyano-4-hydroxy-7-isopropoxy-isoquinoline-3-carbonyl)-amino]-acetic acid]
8 mg/kg oral
  SBP (mmHg) Change from Baseline: −22.14 mmHg
  SBP (mmHg) Change from Vehicle: −12.4 mmHg
20 mg/kg oral
  SBP (mmHg) Change from Baseline: −9.25 mmHg
  SBP (mmHg) Change from Vehicle: −24.73 mmHg

## N#Cc1nc(C(=O)NCC(=O)O)c(O)c2ccn(Cc3ccccc3F)c12 [G, {[7-cyano-1-(2-fluoro-benzyl)-4-hydroxy-1H-pyrrolo[2,3-c]pyridine-5-carbonyl]-amino}-acetic acid]
8 mg/kg oral
  SBP (mmHg) Change from Vehicle: −19.27 mmHg
